Read-outs that look alike come from different tables or passages of the source.
Columns and labels:
[1] = test system: P. aeruginosa strain PAM1723 overexpressing MexAB-OprM; assay: Checkerboard assay: potentiation of in vitro antibacterial activity of levofloxacin by efflux pump inhibitors; type: cell-based; conditions: for MPC8: lowest inhibitor concentration giving antibacterial activity with levofloxacin at 1/8 of its MIC; for MPC8 / MPC32: PAM1723, MHB, 20 h at 35° C.; for MPC32: lowest inhibitor concentration giving antibacterial activity with levofloxacin at 1/32 of its MIC
Method: EPI activity was recorded as concentration of an EPI compound that is necessary to increase susceptibility to levofloxacin of the strain of P. aeruginosa, PAM1723, overexpressing the MexAB-OprM efflux pump eight-fold. The levofloxacin potentiating activity of the test compounds was assessed by the checkerboard assay (Antimicrobial Combinations, Antibiotics in Laboratory Medicine, Ed. Victor Lorian, M.D., Fourth edition, 1996, pp 333-338, which is incorporated herein by reference in its entirety) using a broth microdilution method performed as recommended by the NCCLS (National Committee for Clinical Laboratory Standards (NCCLS), 1997, Methods for Dilution of Antimicrobial Susceptibility Tests for Bacteria That Grow Aerobically, Fourth Edition; Approved Standard. NCCLS Document M7-A4, Vol 17 No. 2, which is incorporated herein by reference in its entirety). In this assay, multiple dilutions of two drugs, namely an EPI and levofloxacin, were tested, alone and in combination, at concentrations equal to, above and below their respective minimal inhibitory concentrations (MICs). All EPI compounds were readily soluble in water and stock solutions were prepared at a final concentration of 10 mg/ml. Stock solutions were further diluted, according to the needs of the particular assay, in Mueller Hinton Broth (MHB). Stock solution was stored at −80° C.
The checkerboard assay was performed in microtiter plates. Levofloxacin was diluted in the x-axis, each column containing a single concentration of levofloxacin. EPIs were diluted in the y-axis, each row containing a single concentration of an EPI. The result of these manipulations was that each well of the microtiter plate contained a unique combination of concentrations of the two agents. The assay was performed in MHB with a final bacterial inoculum of 5×105 CFU/ml (from an early-log phase culture). Microtiter plates were incubated during 20 h at 35° C. and were read using a microtiterplate reader (Molecular Devices) at 650 nm as well as visual observation using a microtiter plate-reading mirror.
In the experiment depicted in Table 1, potentiating activities of selected inhibitors are reported as Minimum Potentiating Concentration MPC8 values (or MPC32) which correspond to the lowest concentration of the inhibitor required to achieve antibacterial activity in combination with the concentration of levofloxacin equal to ⅛ (or 1/32) of the levofloxacin concentration required to achieve the same antibacterial effect alone (MIC of levofloxacin).

[2] = Rat serum pharmacokinetics after 1.5-hour IV infusion; type: in vivo; conditions: for clearance: read-out: Clearance (free drug clearance) (converted)
Method: In the experiment depicted in Table 2, rat serum pharmacokinetics of compounds selected inhibitor compounds was evaluated after 1.5-hour IV infusion of 1.5 ml solution of corresponding efflux pump inhibitor in 0.9% saline. Depending on the concentration used the total infused dose was 10 or 20 mg/kg. A two-compartment model was used to fit the data and calculate PK parameters.

[3] = rat serum, 1.5-hour IV infusion, dose 20 mg/kg, two-compartment model
[4] = rat serum, 1.5-hour IV infusion, dose 10 mg/kg, two-compartment model
[5] = rat serum, 1.5-hour IV infusion, dose 10 mg/kg, read-out: Cmax
[6] = rat serum, 1.5-hour IV infusion, dose 20 mg/kg, read-out: Cmax
[7] = rat, IV infusion, comparison among compounds of Table 2

Compound | clearance [2, 4] | Cmax [2, 5] | clearance [2, 3] | Cmax [2, 6] | also measured
3-[(2R)-2-[(4S)-1-N,1-N-bis(2-azaniumylethyl)-4-formamido-1-N-methylbutane-1,4-bis(aminium)]-4-phenylbutanamido]-1-{[4-(trifluoromethyl)phenyl]methyl}quinolin-1-ium pentachloride [Compound 53] |  |  |  |  | MPC8 [1]: 2.5 µg/mL; MPC32 [1]: 5 µg/mL
3-{2-[(4S)-1-N,1-N-bis(2-azaniumylethyl)-4-(N-methylformamido)-1-N-(prop-2-en-1-yl)butane-1,4-bis(aminium)]-3-[4-(trifluoromethyl)phenyl]propanamido}quinolin-1-ium pentachloride [Compound 92] |  |  |  |  | MPC8 [1]: 0.312 µg/mL; MPC32 [1]: 0.625 µg/mL; Cmax ([2]; rat serum, 1.5-hour IV infusion, dose 20 mg/kg): 18300 ng/mL; Clearance (free drug clearance) [2, 3]: 26.5 mL/min/kg
C[N+](C)(CCN)CCC[C@H](N)C(=O)N[C@H](CCc1ccccc1)C(=O)Nc1ccc(F)c(F)c1F [Compound 5, [(4S)-4-azaniumyl-4-{[(1R)-3-phenyl-1-[(2,3,4-trifluorophenyl)carbamoyl]propyl]carbamoyl}butyl](2-azaniumylethyl)dimethylazanium trichloride] |  |  | 20.5 mL/min/kg | 19600 ng/mL | 
C[N+](CCN)(CCN)CCC[C@H](N)C(=O)N[C@H](Cc1ccc(C(F)(F)F)cc1)C(=O)Nc1cnc2ccccc2c1 [Compound 10, 3-[(2R)-2-[(4S)-1-N,1-N-bis(2-azaniumylethyl)-4-formamido-1-N-methylbutane-1,4-bis(aminium)]-3-[4-(trifluoromethyl)phenyl]propanamido]quinolin-1-ium pentachloride] | 5.17 mL/min/kg | 30600 ng/mL |  |  | efflux pump inhibitory activity (in words) ([1]; comparison among tested compounds): one of the best efflux pump inhibitory activities; free drug clearance (in words) [2, 7]: lowest free drug clearance; serum PK profile (in words) [2, 7]: best serum PK profiles
Mixture of 3-[(2S,3R)-2-[(4S)-1-N,1-N-bis(2-azaniumylethyl)-4-formamido-1-N-methylbutane-1,4-bis(aminium)]-3-hydroxy-3-[4-(trifluoromethyl)phenyl]propanamido]quinolin-1-ium pentachloride 15a and 3-[(2R,3S)-2-[(4S)-1-N,1-N-bis(2-azaniumylethyl)-4-formamido-1-N-methylbutane-1,4-bis(aminium)]-3-hydroxy-3-[4-(trifluoromethyl)phenyl]propanamido]quinolin-1-ium pentachloride 15b [Compound 15] |  |  |  |  | MPC8 [1]: 0.312 µg/mL; MPC32 [1]: 0.625 µg/mL

More lines, main results first:

clearance [2, 4] | Cmax [2, 5] | clearance [2, 3] | Cmax [2, 6] | Compound | also measured
21.5 mL/min/kg | 13400 ng/mL |  |  | C[N+](C)(CCN)CCC[C@H](N)C(=O)N[C@H](CCc1ccccc1)C(=O)Nc1cnc2ccccc2c1 [Compound 4, 3-[(2S)-2-[(4R)-1-N-(2-azaniumylethyl)-4-formamido-1-N,1-N-dimethylbutane-1,4-bis(aminium)]-4-phenylbutanamido]quinolin-1-ium tetrachloride] | 
47.8 mL/min/kg | 7300 ng/mL |  |  | C[N+](CCN)(CCN)CCC[C@H](N)C(=O)N[C@@H](Cc1ccc(C(F)(F)F)cc1)C(=O)Nc1cnc2ccccc2c1 [Compound 11, 3-[(2R)-2-[(4R)-1-N,1-N-bis(2-azaniumylethyl)-4-formamido-1-N-methylbutane-1,4-bis(aminium)]-3-[4-(trifluoromethyl)phenyl]propanamido]quinolin-1-ium pentachloride] | 
16.7 mL/min/kg | 13000 ng/mL |  |  | C[N+](CCN)(CCN)CCC[C@H](N)C(=O)N[C@@H](CC1CCCCC1)C(=O)Nc1cnc2ccccc2c1.Cl.Cl.Cl.Cl.[Cl-] [Compound 25, 3-[(2S)-2-[(4S)-1-N,1-N-bis(2-azaniumylethyl)-4-formamido-1-N-methylbutane-1,4-bis(aminium)]-3-cyclohexylpropanamido]quinolin-1-ium pentachloride] | 
 |  | 5.83 mL/min/kg | 54600 ng/mL | C[N+](CCN)(CCN)CCC[C@H](N)C(=O)N[C@H](CCc1ccccc1)C(=O)Nc1cnc2ccccc2c1 [Compound 27, 3-[(2R)-2-[(4S)-1-N,1-N-bis(2-azaniumylethyl)-4-formamido-1-N-methylbutane-1,4-bis(aminium)]-4-phenylbutanamido]quinolin-1-ium pentachloride] | serum PK profile (in words) [2, 7]: best serum PK profiles
14.2 mL/min/kg | 25600 ng/mL |  |  | C[N+](CCN)(CCN)CCC[C@H](N)C(=O)N[C@@H](CCc1ccccc1)C(=O)Nc1cnc2ccccc2c1.Cl.Cl.[Cl-] [Compound 29, 3-[(2S)-2-[(4S)-1-N,1-N-bis(2-azaniumylethyl)-4-formamido-1-N-methylbutane-1,4-bis(aminium)]-4-phenylbutanamido]quinolin-1-ium pentachloride] | 
 |  | 16.7 mL/min/kg | 63000 ng/mL | C[N+](CCN)(CCN)CCC[C@H](N)C(=O)N[C@H](CCc1ccc(C(F)(F)F)cc1)C(=O)Nc1cnc2ccccc2c1 [Compound 33, 3-[(2R)-2-[(4S)-1-N,1-N-bis(2-azaniumylethyl)-4-formamido-1-N-methylbutane-1,4-bis(aminium)]-4-[4-(trifluoromethyl)phenyl]butanamido]quinolin-1-ium pentachloride] | 
 |  | 10.8 mL/min/kg | 40200 ng/mL | C[C@@H](N)C(=O)N[C@@H](CCC[N+](C)(CCN)CCN)C(=O)N[C@@H](Cc1ccc(C(F)(F)F)cc1)C(=O)Nc1cnc2ccccc2c1 [Compound 44, 3-[(2S)-2-[(4S)—N,N-bis(2-azaniumylethyl)-4-formamido-4-[(1R)-1-formamidoethan-1-aminium]-N-methylbutan-1-aminium]-3-[4-(trifluoromethyl)phenyl]propanamido]quinolin-1-ium pentachloride] | serum PK profile (in words) [2, 7]: best serum PK profiles
